# ChEMBL document CHEMBL3885861, “Open TG-GATES”
# Species: Rattus norvegicus
# Test: Open TG-GATES - Regimen: Daily Repeat
# Format: toxicity, organism-based, Sprague-Dawley
# Design: regimen Daily Repeat, gender Male, age 6 weeks
# Settings: in vivo, po, 0 mg/kg, route gavage, dose level Control; for APTT / Bas / Eos / Fbg / Hb / Ht / Lym / MCH / MCHC / MCV / Mono / Neu / PT / Plat / RBC / Ret / WBC: tissue Blood; for KIDNEY_L / KIDNEY_R / KIDNEY_TOTAL: tissue Kidney; for LIVER: tissue Liver; for A/G / ALP / ALT / AST / BUN / CRE / Ca / Cl / DBIL / GLC / IP / K / LDH / Na / PL / RALB / TBIL / TC / TG / TP / gamma-GTP: tissue Plasma
smiles,measurement,setting,value
Nc1ccc(Cc2ccc(N)cc2)cc1,TERMINAL_BW,"72 h, time 3 day",240.9 g
same,APTT,"72 h, time 3 day",13.2 s
same,Bas,"72 h, time 3 day",0%
same,Eos,"72 h, time 3 day",1%
same,Fbg,"72 h, time 3 day",284.6 mg/dL
same,Hb,"72 h, time 3 day",13.1 g/dL
same,Ht,"72 h, time 3 day",38.4%
same,Lym,"72 h, time 3 day",75%
same,MCH,"72 h, time 3 day",21.1 pg
same,MCHC,"72 h, time 3 day",34%
same,MCV,"72 h, time 3 day",62.1 fL
same,Mono,"72 h, time 3 day",2.8%
same,Neu,"72 h, time 3 day",20.2%
same,PT,"72 h, time 3 day",11.7 s
same,Plat,"72 h, time 3 day",134 x10_4/uL
same,RBC,"72 h, time 3 day",618.2 x10_4/ul
same,Ret,"72 h, time 3 day",6.4%
same,WBC,"72 h, time 3 day",93.3 x10_2/uL
same,KIDNEY_L,"72 h, time 3 day",1 g
same,KIDNEY_R,"72 h, time 3 day",1 g
same,KIDNEY_TOTAL,"72 h, time 3 day",2 g
same,LIVER,"72 h, time 3 day",11.1 g
same,A/G,"72 h, time 3 day",0.8
same,ALP,"72 h, time 3 day",1856.4 IU/L
same,ALT,"72 h, time 3 day",42 IU/L
same,AST,"72 h, time 3 day",71.6 IU/L
same,BUN,"72 h, time 3 day",15.2 mg/dL
same,CRE,"72 h, time 3 day",0.2 mg/dL
same,Ca,"72 h, time 3 day",11 mg/dL
same,Cl,"72 h, time 3 day",105.4 meq/L
same,DBIL,"72 h, time 3 day",0.018 mg/dL
same,GLC,"72 h, time 3 day",177.2 mg/dL
same,IP,"72 h, time 3 day",7.6 mg/dL
same,K,"72 h, time 3 day",4 meq/L
same,LDH,"72 h, time 3 day",76.6 IU/L
same,Na,"72 h, time 3 day",142.8 meq/L
same,PL,"72 h, time 3 day",139 mg/dL
same,RALB,"72 h, time 3 day",2.6 g/dL
same,TBIL,"72 h, time 3 day",0.038 mg/dL
same,TC,"72 h, time 3 day",75 mg/dL
same,TG,"72 h, time 3 day",108.2 mg/dL
same,TP,"72 h, time 3 day",5.8 g/dL
same,gamma-GTP,"72 h, time 3 day",1 IU/L
same,TERMINAL_BW,"[…], time 7 day",282.7 g
same,TERMINAL_BW,"[…], time 14 day",342.6 g
same,TERMINAL_BW,"[…], time 28 day",438.3 g
same,APTT,"[…], time 7 day",15.2 s
same,Bas,"[…], time 7 day",0.2%
same,Eos,"[…], time 7 day",0.8%
same,Fbg,"[…], time 7 day",277.4 mg/dL
same,Hb,"[…], time 7 day",13.6 g/dL
same,Ht,"[…], time 7 day",39.5%
same,Lym,"[…], time 7 day",75.4%
same,MCH,"[…], time 7 day",20.9 pg
same,MCHC,"[…], time 7 day",34.5%
same,MCV,"[…], time 7 day",60.7 fL
same,Mono,"[…], time 7 day",2.2%
same,Neu,"[…], time 7 day",20.4%
same,PT,"[…], time 7 day",11.4 s
same,Plat,"[…], time 7 day",137.3 x10_4/uL
same,RBC,"[…], time 7 day",650.6 x10_4/ul
same,Ret,"[…], time 7 day",5.3%
same,WBC,"[…], time 7 day",99.1 x10_2/uL
same,APTT,"[…], time 14 day",14.9 s
same,Bas,"[…], time 14 day",0.2%
same,Eos,"[…], time 14 day",1%
same,Fbg,"[…], time 14 day",273 mg/dL
same,Hb,"[…], time 14 day",13.4 g/dL
same,Ht,"[…], time 14 day",39%
same,Lym,"[…], time 14 day",73.8%
same,MCH,"[…], time 14 day",20.2 pg
same,MCHC,"[…], time 14 day",34.1%
same,MCV,"[…], time 14 day",59.3 fL
same,Mono,"[…], time 14 day",2.2%
same,Neu,"[…], time 14 day",22.6%
same,PT,"[…], time 14 day",11.2 s
same,Plat,"[…], time 14 day",158.2 x10_4/uL
same,RBC,"[…], time 14 day",661.2 x10_4/ul
same,Ret,"[…], time 14 day",7.2%
same,WBC,"[…], time 14 day",97.7 x10_2/uL
same,APTT,"[…], time 28 day",17.5 s
same,Bas,"[…], time 28 day",0.4%
same,Eos,"[…], time 28 day",0.8%
same,Fbg,"[…], time 28 day",284.2 mg/dL
same,Hb,"[…], time 28 day",14.9 g/dL
same,Ht,"[…], time 28 day",42.2%
same,Lym,"[…], time 28 day",78%
same,MCH,"[…], time 28 day",20.2 pg
same,MCHC,"[…], time 28 day",35.3%
same,MCV,"[…], time 28 day",57.2 fL
same,Mono,"[…], time 28 day",2%
same,Neu,"[…], time 28 day",17.6%
same,PT,"[…], time 28 day",11.9 s
same,Plat,"[…], time 28 day",120.3 x10_4/uL
same,RBC,"[…], time 28 day",738.4 x10_4/ul
same,Ret,"[…], time 28 day",2.2%
same,WBC,"[…], time 28 day",122.3 x10_2/uL
same,KIDNEY_L,"[…], time 7 day",1.2 g
same,KIDNEY_R,"[…], time 7 day",1.1 g
same,KIDNEY_TOTAL,"[…], time 7 day",2.3 g
same,KIDNEY_L,"[…], time 14 day",1.3 g
same,KIDNEY_R,"[…], time 14 day",1.2 g
same,KIDNEY_TOTAL,"[…], time 14 day",2.5 g
same,KIDNEY_L,"[…], time 28 day",1.5 g
same,KIDNEY_R,"[…], time 28 day",1.4 g
same,KIDNEY_TOTAL,"[…], time 28 day",2.9 g
same,LIVER,"[…], time 7 day",12.4 g
same,LIVER,"[…], time 14 day",14.8 g
same,LIVER,"[…], time 28 day",17.8 g
same,A/G,"[…], time 7 day",0.9
same,ALP,"[…], time 7 day",1837.2 IU/L
same,ALT,"[…], time 7 day",37 IU/L
same,AST,"[…], time 7 day",63.8 IU/L
same,BUN,"[…], time 7 day",17 mg/dL
same,CRE,"[…], time 7 day",0.2 mg/dL
same,Ca,"[…], time 7 day",11 mg/dL
same,Cl,"[…], time 7 day",106 meq/L
same,DBIL,"[…], time 7 day",0.022 mg/dL
same,GLC,"[…], time 7 day",177.6 mg/dL
same,IP,"[…], time 7 day",6.8 mg/dL
same,K,"[…], time 7 day",4.1 meq/L
same,LDH,"[…], time 7 day",65.6 IU/L
same,Na,"[…], time 7 day",143.2 meq/L
same,PL,"[…], time 7 day",138.6 mg/dL
same,RALB,"[…], time 7 day",2.7 g/dL
same,TBIL,"[…], time 7 day",0.066 mg/dL
same,TC,"[…], time 7 day",70.6 mg/dL
same,TG,"[…], time 7 day",106 mg/dL
same,TP,"[…], time 7 day",5.8 g/dL
same,gamma-GTP,"[…], time 7 day",1 IU/L
same,A/G,"[…], time 14 day",0.8
same,ALP,"[…], time 14 day",1483.2 IU/L
same,ALT,"[…], time 14 day",36.6 IU/L
same,AST,"[…], time 14 day",58.6 IU/L
same,BUN,"[…], time 14 day",15.4 mg/dL
same,CRE,"[…], time 14 day",0.2 mg/dL
same,Ca,"[…], time 14 day",11 mg/dL
same,Cl,"[…], time 14 day",104.6 meq/L
same,DBIL,"[…], time 14 day",0.022 mg/dL
same,GLC,"[…], time 14 day",172.2 mg/dL
same,IP,"[…], time 14 day",6.3 mg/dL
same,K,"[…], time 14 day",3.9 meq/L
same,LDH,"[…], time 14 day",79.4 IU/L
same,Na,"[…], time 14 day",143.2 meq/L
same,PL,"[…], time 14 day",147 mg/dL
same,RALB,"[…], time 14 day",2.7 g/dL
same,TBIL,"[…], time 14 day",0.052 mg/dL
same,TC,"[…], time 14 day",76.6 mg/dL
same,TG,"[…], time 14 day",133.4 mg/dL
same,TP,"[…], time 14 day",6.2 g/dL
same,gamma-GTP,"[…], time 14 day",1 IU/L
same,A/G,"[…], time 28 day",0.7
same,ALP,"[…], time 28 day",1089.4 IU/L
same,ALT,"[…], time 28 day",34.4 IU/L
same,AST,"[…], time 28 day",56.6 IU/L
same,BUN,"[…], time 28 day",15.2 mg/dL
same,CRE,"[…], time 28 day",0.2 mg/dL
same,Ca,"[…], time 28 day",10.9 mg/dL
same,Cl,"[…], time 28 day",105.2 meq/L
same,DBIL,"[…], time 28 day",0.02 mg/dL
same,GLC,"[…], time 28 day",176.4 mg/dL
same,IP,"[…], time 28 day",5.9 mg/dL
same,K,"[…], time 28 day",3.7 meq/L
same,LDH,"[…], time 28 day",67.6 IU/L
same,Na,"[…], time 28 day",144.4 meq/L
same,PL,"[…], time 28 day",141.2 mg/dL
same,RALB,"[…], time 28 day",2.7 g/dL
same,TBIL,"[…], time 28 day",0.058 mg/dL
same,TC,"[…], time 28 day",67.8 mg/dL
same,TG,"[…], time 28 day",168.2 mg/dL
same,TP,"[…], time 28 day",6.4 g/dL
same,gamma-GTP,"[…], time 28 day",1 IU/L
